The text below walks through data of article doi:10.1101/2025.01.24.634724, “Receptor Activity-Modifying Protein 3 enhances GLP-1-mediated Insulin Secretion” (bioRxiv, 2025).

The test system of one experiment is CLR-RAMP1. The following applies: cited from earlier work. An excerpt:
As RAMP3 expression varies between tissues, it is possible that by directly targeting this complex, tissue specific receptor activation could be facilitated. […] Agonists which have reduced affinity for the RAMP3 complex over receptor alone ...

Another experiment has as its system INS-1 832/3 cells. The experiment in a line: Insulin secretion (GSIS), INS-1 832/3. Format: cell-based, rat. The note with it: for effect of inhibitor on GLP-1-mediated insulin secretion: 10nM GLP-1, vector or RAMP3, 30 min inhibitor pre-treatment (YM-254890 100nM, PTX 0.2ng/μL), n>4. As for the experimental part: (§1) Insulin content was measured with the insulin ultra-sensitive detection kit (Cisbio).

Experiment [1] has as its system LgBiT-GLP-1R with SmBiT-RAMP1 or -RAMP2. The experiment is described as follows: NanoBiT/BRET fluorescent ligand binding with SmBiT-RAMP1 or -RAMP2. The following applies: SmBiT-RAMP1 or -RAMP2, HEK293T. For orientation: Bioluminescence resonance energy transfer reports proximity on the nanometre scale.
A further experiment has as its system Min6 B1 cells. The experiment in a line: Insulin secretion, siRNA treated Min6 B1. Format: cell-based, mouse. The following applies: 10nM or 1nM peptide with 10mM glucose; Min6 B1, n=4. As for the experimental part: as §1
The test system of experiment [2] is wildtype SvEv129/SJ and isogenic Ramp3−/− male mice. The experiment is described as follows: IPGTT plasma insulin, WT and Ramp3−/− mice. The following applies: GLP-1 50nmol/kg subQ, 15 min after glucose 2g/kg i.p., n=5. Format: in vivo, mouse. An excerpt: (§2) Ramp3^−/− mice and genotyping have been previously described ([34]).
The test system is the same in experiment [3]. The experiment is described as follows: Insulin tolerance test (ITT), blood glucose, WT and Ramp3−/− mice. Format: in vivo, mouse. The note with it: GLP-1 50nmol/kg subQ 15 min before insulin 1IU/kg i.p., n=5.
From the text: as §2

For another experiment, the system named is GCGR with RAMP2. The following applies: RAMP2 co-expression ref 13; cited from earlier work. An excerpt:
Signalling bias can also be influenced by the tissue, due to differential expression of signalling proteins, as well as allosteric modulators. A common protein allosteric modulator of Class B1 GPCRs are the receptor activity-modifying proteins (RAMPs). First discovered for the calcitonin-like receptor, with which they form obligate heterodimers, RAMPs influence the expression, affinity, and signalling bias of the receptor. For the calcitonin family, this leads to receptors considered functionally distinct ([10], [11]), although smaller effects are observed on other receptors e.g. the vasoactiv ...

Experiment [4] has as its system Ramp1/Ramp3 knockout mice. The note with it: mouse models; dual Ramp1/Ramp3 deletion ref 43 (Leuthardt et al.); cited from earlier work. An excerpt:
It is possible this difference is due to lower receptor expression, or a differential effect on bias for the rodent receptors than the human. Species differences in signalling bias have been observed for other GPCRs associated with islet cell pharmacology ([41]), so it stands to reason this might be influencing the differences o ...

Experiment [5] deals with Nluc-GLP-1R. The experiment in a line: cAMP accumulation, HEK293T. Format: cell-based. (cAMP levels reflect the balance of adenylyl cyclase and phosphodiesterase activity.)
Experiment [6] has as its system Nluc-GLP-1R. The experiment in a line: (Ca2+)i mobilisation, HEK293T. Format: cell-based.
Procedure: HEK293T cells were transfected with 100ng Nluc-GLP-1R and 200ng of pcDNA3.1 or FLAG-RAMP3, or 100ng of pcDNA3.1 and FLAG- RAMP3 per 100μl cells and seeded in a 0.01% PLL-coated black-walled clear-bottom 96-well plate. 48 hours later media was removed, and cells were incubated in 10μM Fluor4-AM dye containing 2.5mM probenecid for 1 hour at room temperature. Cells were washed and dye replaced with Hank’s Balanced Salt Solution (Lonza) without Ca^2+ containing 0.1% BSA w/v. […] The response to vehicle was taken to be 0%, and the response to 10 μM ionomycin was used as 100%. For HEK293T cells, the maximal fluorescence was used for further analysis.
In a further experiment the test system is GLP-1R / Gαs. The experiment is described as follows: TRUPATH G protein dissociation, Gαs. Format: cell-based. The note with it: HEK293T.
Experiment [7] concerns GLP-1R-Nluc. The experiment in a line: Receptor internalisation (loss of BRET with RIT-Venus), HEK293T. Format: cell-based. The following applies: for effect of RAMP3 on internalisation: RAMP3 overexpression.
Procedure: Experiments were performed as previously described (([47])).
The subject of the next experiment is GLP-1R / Gαq(R183Q). The experiment is described as follows: TRUPATH G protein dissociation, Gαq(R183Q). The note with it: HEK293T, R183Q mutant.
The test system of experiment [8] is GLP-1R-Nluc. The experiment is described as follows: β-arrestin recruitment, HEK293T. The note with it: stated in discussion. Format: cell-based.
Setting [9] is: relative to GLP-1 at GLP-1R alone.

Values joined by “and” are separate entries in the source; they are usually repeats but may differ in a detail not shown here. Equal entries are not always repeated. “Also recorded” adds a separate entry of the source. Numbered stars: 1 amine (or outer) side, 2 acyl side, 3 side chain; on linkers, the order of the positions; unused ones are H or OH. Bridge positions count the residues as written; N and C are the ends. Square brackets hold non-standard residues; d marks the D form. Peptide text beside a SMILES is read from it. X1 = CC(=O)NC(C(=O)OC(C(C)C)C(N[*:1])C(=O)[*:2])C(O)C(C)C; PhLac = O=C(O)[CH](O)Cc1ccccc1; NMeT = CN[CH](C(=O)O)[CH](C)O; NMeA = CN[CH](C)C(=O)O; NMeDha = C=C(NC)C(=O)O

Procedure for GLP-1R / Gαq(R183Q): (§3) G Protein dissociation assays were performed using the TRUPATH biosensor platform, as described ([28]). HEK293T cells were transfected with GLP-1R, Gα, Gγ, Gβ, and pcDNA3.1 or FLAG-RAMP3 all in equal quantities and incubated overnight. […] Cells were washed with KREBs with 0.1% BSA and incubated in buffer containing 5μM coelenterazine 400a for 5 minutes. Ligands were then added, and plates read using the Pherastar microplate reader using the BRET2 module, at 60-second intervals. The BRET2 ratio was calculated (λ515/λ400) and total dissociation over a 30-minute period used to generate dose response curves.
Procedure for GLP-1R / Gαs: as §3

Consider `NCCCC[C@H](NC(=O)[C@@H](Cc1cc(Br)c(O)c(Br)c1)NC(=O)N1CCC(N2Cc3ccccc3NC2=O)CC1)C(=O)N1CCN(c2ccncc2)CC1` [BIBN 4096 BS], for which the “activity at CLR-RAMP1” value with CLR-RAMP1 was “CLR-RAMP1 antagonist”.

Turning to `CC(C)(C)c1cc(C(=O)/C(C#N)=N/Nc2cccc(Cl)c2)no1` [ESI-09], the “effect of inhibitor on GLP-1-mediated insulin secretion” value (“effect of inhibitor” below) in the experiment on INS-1 832/3 cells was “significantly decreased GLP-1 mediated potentiation of GSIS in both vector and RAMP3 transfected cells”. The “effect on insulin secretion with […] glucose alone” value with INS-1 832/3 cells (10μM ESI-09, no GLP-1, n=6) is “a reduction was also observed on the response to 16.7mM glucose alone; also recorded: a non-significant reduction was also observed in cells stimulated with high glucose alone”.

For the molecule `Nc1ncnc2c1nc(Br)n2C1OC2COP(O)(=S)OC2C1O` (stereo not shown) [Rp-8-Br-cAMPs], the “effect of inhibitor” value with INS-1 832/3 cells was “no effect on insulin secretion, irrespective of the expression of RAMP3”.

In the case of `C=C1C(=O)NC(C)C(=O)N(C)C(C)C(=O)NC(C(OC(=O)C(NC(C)=O)C(O)C(C)C)C(C)C)C(=O)N(C)C(C(C)OC)C(=O)OC(C)C(NC(C)=O)C(=O)OC(Cc2ccccc2)C(=O)N1C` (stereo not shown) [YM-254890] (Ac-T[PhLac][NMeDha]A[NMeA][X1][NMeT](Me); ester 1-C; configuration not given here), in the experiment with INS-1 832/3 cells, the “effect of inhibitor” value is recorded as “the effect of YM-254890 was greater than PTX”.

Regarding “Ex-4-Red: Tag-Lite GLP-1 receptor red ligand, based on exendin-4 (Cisbio)”, in experiment [1], the “binding of Ex-4-Red” value is recorded as “not observed for SmBiT-RAMP1 or -RAMP2”.

For GLP-1 (7–36amide), the insulin secretion in the experiment on INS-1 832/3 cells is 2.36±0.30 fold over 2.8mM glucose and 3.94±0.33 fold over 2.8mM glucose. The “effect of RAMP3 knockdown on insulin secretion” value in the experiment with Min6 B1 cells is on record as “attenuated, although the effect was small”. Further, the entries for the “plasma insulin, IPGTT” value in experiment [2] (Ramp3−/− mice) and in experiment [2] (WT mice) were “This response was lost in Ramp3^−/− mice; also recorded: no longer able to elevate insulin secretion above vehicle-treated animals” and “increased insulin secretion 15 minutes after administration of glucose”, respectively. For the same molecule, the “blood glucose, ITT” value in [3] (Ramp3−/− mice) is given as “lost in Ramp3^−/− mice (Figure 7H)”; in experiment [3] (WT mice) it was “potentiated the effects of insulin on blood glucose”. In the experiment on GCGR with RAMP2, the “effect of RAMP2 on Gαs coupling at GCGR” value was “decreasing the response”. The “effect of Ramp knockout on bodyweight lowering” value in experiment [4] is recorded as “increase the effect of GLP-1 on bodyweight lowering in mouse models”.

As for GLP-1 (9–36amide) [GLP-1 9–36], the cAMP production result in the experiment with Nluc-GLP-1R [5] (8-minute stimulation, concentration range tested) is listed as “did not elicit sufficient cAMP production over the concentration range tested”. Moreover, in the experiment with Nluc-GLP-1R [6] (in the absence of RAMP3), the “(Ca2+)i mobilisation” value is recorded as “unable to elicit any (Ca^2+)i mobilisation in the absence of RAMP3”.

As for “exendin-4: incretin mimetic, approved for T2DM in 2005”, the “effect of RAMP3 on Gαs dissociation” value in the experiment with GLP-1R / Gαs is “no effect”. In addition, the “effect of RAMP3 overexpression on cAMP potency and efficacy” value (from here on “effect of RAMP3 overexpression”) with Nluc-GLP-1R [5] (8-minute stimulation) is “reductions in both potency and efficacy observed when RAMP3 was overexpressed”. In addition, in the experiment on GLP-1R-Nluc [7], the “effect of RAMP3 on internalisation” value is reported as “no subsequent effect on internalisation”. For the same molecule, the “effect of RAMP3 on Gαq(Q) dissociation” value in the experiment with GLP-1R / Gαq(R183Q) is given as “no effect”.

Turning to “glucagon: agonist of the glucagon receptor (GCGR)”, the “effect of RAMP2 on Gαs coupling at GCGR” value with GCGR with RAMP2 is “increasing Gαs coupling at GCGR”.

Turning to “glucose-dependent insulinotropic polypeptide [GIP]”, the “effect of RAMP1 and RAMP3 on insulin secretion” value with INS-1 832/3 cells was “both RAMP1 and 3 increased insulin secretion”. Moreover, the “effect of RAMP3 knockdown on insulin secretion” value with Min6 B1 cells is recorded as “unaffected by RAMP3 knockdown”.

For the molecule “liraglutide: a synthetic, lipidated GLP-1 mimetic, approved in the treatment of T2DM”, the “effect of RAMP3 on Gαs dissociation” value with GLP-1R / Gαs was “no effect”. The “effect of RAMP3 overexpression” value with Nluc-GLP-1R [5] (8-minute stimulation) is “reductions in both potency and efficacy observed when RAMP3 was overexpressed”. Besides, the “effect of RAMP3 on LogRA, cAMP accumulation / second messenger” value with Nluc-GLP-1R [5] (setting [9]) is “lesser effects on second messenger signalling”. The “effect of RAMP3 on (Ca2+)i mobilisation” value in the experiment on Nluc-GLP-1R [6] is recorded as “no significant effects”. Also, the inherent signalling bias entry in the experiment on GLP-1R-Nluc [8] is “bias towards β-arrestin recruitment”. For the same molecule, in the experiment with GLP-1R-Nluc [7], the “effect of RAMP3 on internalisation” value is listed as “significant decrease in the potency of internalisation; also recorded: the response to liraglutide was reduced”. Further, in the experiment with GLP-1R-Nluc [7] (setting [9]), the “effect of RAMP3 on LogRA, desensitisation / internalisation” value is reported as “greater reduction in internalisation”. Besides, the “effect of RAMP2 on Gαs coupling at GCGR” value in the experiment on GCGR with RAMP2 was “decreasing the response”. Moreover, the “effect of RAMP3 on Gαq(Q) dissociation” value in the experiment with GLP-1R / Gαq(R183Q) is on record as “no effect”.

Take “oxyntomodulin: an endogenous dual agonist of both GCGR and GLP-1R”: the “effect of RAMP3 overexpression” value with Nluc-GLP-1R [5] (8-minute stimulation) is “reductions in both potency and efficacy observed when RAMP3 was overexpressed”. Also, the “effect of RAMP3 on internalisation” value in the experiment on GLP-1R-Nluc [7] is “no subsequent effect on internalisation”. Besides, in the experiment on GCGR with RAMP2, the “effect of RAMP2 on Gαs coupling at GCGR” value is on record as “increasing Gαs coupling at GCGR”. Further, the “effect of RAMP3 on Gαq(Q) dissociation” value with GLP-1R / Gαq(R183Q) is recorded as “no effect”.

Regarding pertussis toxin [PTX], the “effect of inhibitor” value with INS-1 832/3 cells is listed as “decreased insulin secretion significantly only when RAMP3 was overexpressed”.
